Read-outs that look alike come from different tables or passages of the source. Ends that are not written are not given here.
Experiments:
[1] = test system: Pseudomonas aeruginosa (DSM 1117); assay type: cell-based
Procedure: (§1) Antimicrobial activity was measured by a standard MIC assay, carried out with Gram-positive Staphylococcus aureus (DSM 1104) and Enterococcus faecalis (DSM 2570) and with Gram-negative Escherichia coli (DSM 1103) and Pseudomonas aeruginosa (DSM 1117), as previously reported. Briefly, bacteria were grown in Müller-Hinton medium at 37°C overnight. Microtiter plates (96 wells of 100 μL) were filled with 50 μL of Müller-Hinton medium, and serial 2-fold dilutions of peptides were arranged in quadruple. The two final rows of each plate remained without peptide, so that the penultimate data point served as the positive control (no peptide), and the final one as the negative control (not inoculated). 50 μL of bacterial suspension (OD = 0.2) was added to the wells (except for the final row of each plate) to give a final concentration of 10^6 colony-forming units (CFU)/mL.

[2] = test system: Staphylococcus aureus (DSM 1104); assay type: cell-based
Procedure: as §1

[3] = test system: Escherichia coli (DSM 1103); assay type: cell-based
Procedure: as §1

[4] = test system: Enterococcus faecalis (DSM 2570); assay type: cell-based
Procedure: as §1

[5] = Circular dichroism, secondary structure deconvolution (CONTIN-LL); assay type: physicochemical; details: CD, P/L 1:50, 30 μM peptide, 30°C; for Helicity: DMPC/DMPG (3:1) small unilamellar vesicles, 10 mM phosphate buffer pH 7, minimum helical content; for Percentage of secondary structure element: α-helix: DMPC/DMPG (3:1) vesicles
Procedure: CD samples were prepared by co-solubilizing DMPC and DMPG (3:1 mol/mol) in chloroform/methanol 3:1 (v/v). After drying, the lipid film was dispersed in phosphate buffer (10 mM, pH 7) and homogenized by vortexing. Small unilamellar vesicles (SUVs) for CD samples were generated by sonication in a high-power ultrasonic bath with a beaker-shaped sonotrode (UTR 200, Hielscher, Germany). CD spectra were recorded on a J-815 spectropolarimeter (JASCO, Groß-Umstadt, Germany) between 260 and 185 nm at 0.1-nm intervals, using 1-mm quartz glass cells (Suprasil; Hellma, Müllheim, Germany) at 20°C, as reported previously. The peptides were measured at 20°C in 10 mM sodium phosphate buffer (pH 7.0) and at 30°C in lipid vesicles composed of DMPC/DMPG (3:1). Typical peptide concentrations of the final samples in phosphate buffer was 36–72 μM, and for the vesicle samples 30 μM with a peptide-to-lipid molar ratio (P/L) of 1:50. An averaged baseline of the pure solvent or lipid matrix, respectively, was subtracted. Finally, the spectra were converted to mean residue ellipticities (MRE) by using the weighed-in peptide amount and the volume of the sample for concentration determination. […] Although this ambiguity in peptide concentration leads most probably to an underestimation of the magnitude of the MRE values we attempted a quantitative deconvolution of CD data to estimate the relative contents of different secondary structure elements. If part of the weighted material was not peptide, this leads to an underestimating of the MRE, which also leads to an underestimation of the helical content. The values obtained are thus the minimum helical content of each peptide.
Secondary structure estimation from CD spectra was performed using the CONTIN-LL program, which is based on the ridge regression algorithm. The algorithm is provided by the DICHROWEB on-line server. The quality of the fit between experimental and back-calculated spectrum corresponding to the estimated secondary structure fractions was assessed from the normalized root mean square deviation (NRMSD), with a value <0.1 considered as a good fit[74].

[6] = Vesicle leakage assay (ANTS/DPX fluorescence dequenching); assay type: biochemical; details: for percentage of leakage: P/L = 1:12.5, after 10 minutes, 100 μM lipid, 30°C, pH 7.5, relative to Triton X-100 = 100%
Procedure: For the leakage experiments, the buffer in which the vesicles were prepared contained the fluorophor ANTS (12.5 mM), the quencher DPX (45 mM), 50 mM NaCl, and 10 mM HEPES (pH 7.5). Liposomes were prepared by co-dissolving PC/PG 1:1 (mol/mol) mixtures of the lipids with different chain length in CHCl3/MeOH (3:1 v/v), together with 10^−2 mol% Rhod-PE by which the lipid loss during vesicle preparation (extrusion and gel filtration, see below) could be quantified. The peptide-to-lipid ratio (P/L) is given in mol/mol. The lipid mixture was dried under N2(g) and left to dry under vacuum overnight. The obtained thin film was then re-suspended in the buffer which contained the fluorophor and the quencher by vigorous vortexing, followed by 10 freeze-thaw cycles. Large unilamellar vesicles (LUV) were obtained by 21-fold extrusion (Avanti Mini Extruder; Avanti Polar Lipids, Alabaster, AL) of the liposomes through a Nuclepore polycarbonate membrane (pore size 100 nm, Whatman - GE Healthcare Europe, Freiburg, Germany) at a temperature 20°C above the lipid phase transition. Unencapsulated dye was removed by gel filtration using spin columns filled with Sephacryl 100-HR (Sigma-Aldrich, Taufkirchen, Germany), and equilibrated with an elution buffer (150 mM NaCl, 10 mM HEPES, pH 7.5) which balances the internal vesicle osmolarity.
Leakage of entrapped ANTS was monitored by fluorescence dequenching of ANTS[76]. Fluorescence measurements were performed in a thermostatted cuvette with constant stirring at 30°C in the same buffer as used for gel filtration on a FluoroMax2 spectrofluorimeter (HORIBA Jobin Yvon, Unterhaching, Germany) by setting the ANTS emission to 510 nm (5 nm slit) and its excitation to 355 nm (5 nm slit). The vesicles (100 μM lipid final concentration) of the desired composition were added to the cuvette containing the peptide at the P/L ratio to be tested (from 1 mM stock solutions in water). The level of 0% leakage corresponded to the fluorescence of the vesicles immediately after their addition, while 100% leakage was the fluorescence value obtained after addition of a 0.25 vol-% Triton X-100 after 10 min.

[7] = DErPC/DErPG 1:1 vesicles (34.4/34.4 Å)
[8] = DErPC/POPG 1:1 vesicles (34.4/27.8 Å)
[9] = DMoPC/DOPG 1:1 vesicles (hydrophobic thickness 19.2/27.5 Å)
[10] = POPC/DErPG 1:1 vesicles (27.1/34.4 Å)
[11] = POPC/POPG 1:1 vesicles (27.1/27.8 Å)

For “GMASKAGAIAGKIAKVALKAL-NH2 [PGLa, reference compound]”, which MIC ([1]; P. aeruginosa, same assay as Table 2, given in µM) is on record?
Its MIC is 119 µM.

What about the MIC ([2]; S. aureus, same assay as Table 2, given in µM) of the same substance?
Its MIC is 30 µM.

What about the MIC ([3]; E. coli, same assay as Table 2, given in µM) of the same substance?
Its MIC is 15 µM.

What about the MIC ([4]; E. faecalis, same assay as Table 2, given in µM) of the same substance?
Its MIC is >477 µM.

Which MIC ([1]; DSM 1117, 20 h) does the source give for KIAGKIAKIAGKIA-NH2 [KIA14] here?
The MIC was >164 µM.

What about the MIC ([2]; DSM 1104, 20 h) of the same substance?
Its MIC is >164 µM.

What about the MIC ([3]; DSM 1103, 20 h) of the same substance?
The MIC was >164 µM.

What about the MIC ([4]; DSM 2570, 20 h) of the same substance?
The MIC was >657 µM.

For KIAGKIAKIAGKIAK-NH2 [KIA15], which Helicity [5] is on record?
Its Helicity is 69%.

What about the “Percentage of secondary structure element: α-helix” value [5] of the same substance?
The value was 68.7%.

What about the MIC ([1]; DSM 1117, 20 h) of the same substance?
Its MIC is >149 µM.

And the MIC ([2]; DSM 1104, 20 h)?
The MIC was >149 µM.

And the MIC ([3]; DSM 1103, 20 h)?
Its MIC is >149 µM.

And the “antimicrobial activity (in words)” value ([3]; E. coli DSM 1103, MIC assay)?
Its value is “completely inactive”.

What about the MIC ([4]; DSM 2570, 20 h) of the same substance?
The MIC was >595 µM.

And the percentage of leakage [6, 7]?
Its percentage of leakage is 0%.

And the percentage of leakage [6, 8]?
Its percentage of leakage is 3%.

What about the percentage of leakage [6, 9] of the same substance?
Its percentage of leakage is 3%.

And the percentage of leakage [6, 10]?
Its percentage of leakage is 2%.

What about the percentage of leakage [6, 11] of the same substance?
The percentage of leakage was 2%.

What about the leakage ([6]; POPC/POPG vesicles, P/L = 1:50, time course over 600 s, Triton X-100 = 100%) of the same substance?
The leakage was < 2%.

Which MIC ([1]; DSM 1117, 20 h) does the source give for KIAGKIAKIAGKIAKIA-NH2 [KIA17] here?
Its MIC is 134 µM.

And the MIC ([2]; DSM 1104, 20 h)?
Its MIC is 134 µM.

What about the MIC ([3]; DSM 1103, 20 h) of the same substance?
Its MIC is 17 µM.

And the MIC ([4]; DSM 2570, 20 h)?
The MIC was >537 µM.

What does the source list for KIAGKIAKIAGKIAKIAGK-NH2 [KIA19]?
MIC ([1]; DSM 1117, 20 h): 120 µM; MIC ([2]; DSM 1104, 20 h): >120 µM; MIC ([3]; DSM 1103, 20 h): 15 µM; MIC ([4]; DSM 2570, 20 h): >481 µM

With KIAGKIAKIAGKIAKIAGKIA-NH2 [KIA21] as the substance, how does the MIC ([1]; DSM 1117, 20 h) read?
The MIC was 28 µM.

What about the MIC ([2]; DSM 1104, 20 h) of the same substance?
The MIC was 3.5 µM.

And the MIC ([3]; DSM 1103, 20 h)?
The MIC was 1.7 µM.

What about the MIC ([4]; DSM 2570, 20 h) of the same substance?
The MIC was 443 µM.

Which Helicity [5] does the source give for KIAGKIAKIAGKIAKIAGKIAK-NH2 [KIA22] here?
The Helicity was 68%.

What about the “Percentage of secondary structure element: α-helix” value [5] of the same substance?
The value was 67.7%.

What about the MIC ([1]; DSM 1117, 20 h) of the same substance?
Its MIC is 13 µM.

And the “antimicrobial activity (in words)” value ([1]; P. aeruginosa DSM 1117, MIC assay)?
Its value is “somewhat active”.

And the MIC ([2]; DSM 1104, 20 h)?
Its MIC is 6.5 µM.

What about the MIC ([3]; DSM 1103, 20 h) of the same substance?
The MIC was 1.6 µM.

What about the MIC ([4]; DSM 2570, 20 h) of the same substance?
The MIC was 414 µM.

What about the “antimicrobial activity (in words)” value ([4]; E. faecalis DSM 2570, MIC assay) of the same substance?
The value was “hardly any activity”.

And the percentage of leakage [6, 7]?
Its percentage of leakage is 6%.

What about the percentage of leakage [6, 8] of the same substance?
Its percentage of leakage is 85%.

What about the percentage of leakage [6, 9] of the same substance?
Its percentage of leakage is 100%.

What about the percentage of leakage [6, 10] of the same substance?
The percentage of leakage was 26%.

What about the percentage of leakage [6, 11] of the same substance?
The percentage of leakage was 100%.

And the “kinetics (rate) of leakage” value ([6]; POPC/POPG vesicles, P/L = 1:50, time course over 600 s)?
The value was “slower kinetics”.

With KIAGKIAKIAGKIAKIAGKIAKIA-NH2 [KIA24] as the substance, how does the MIC ([1]; DSM 1117, 20 h) read?
The MIC was 6.0 µM.

What about the MIC ([2]; DSM 1104, 20 h) of the same substance?
Its MIC is 1.5 µM.

What about the MIC ([3]; DSM 1103, 20 h) of the same substance?
Its MIC is 1.5 µM.

What about the MIC ([4]; DSM 2570, 20 h) of the same substance?
The MIC was 24 µM.

Which MIC ([1]; DSM 1117, 20 h) does the source give for KIAGKIAKIAGKIAKIAGKIAKIAGK-NH2 [KIA26] here?
Its MIC is 5.6 µM.

What about the MIC ([2]; DSM 1104, 20 h) of the same substance?
The MIC was 2.8 µM.

And the MIC ([3]; DSM 1103, 20 h)?
The MIC was 1.4 µM.

What about the MIC ([4]; DSM 2570, 20 h) of the same substance?
Its MIC is 22 µM.

Which results are given for “KIAGKIAKIAGKIAKIAGKIAKIAGKIA-NH2 [KIA28]”?
MIC ([1]; DSM 1117, 20 h): 5.2 µM; MIC ([2]; DSM 1104, 20 h): 2.6 µM; MIC ([3]; DSM 1103, 20 h): 2.6 µM; MIC ([4]; DSM 2570, 20 h): 5.2 µM

Reference: PMC5224518, “Hydrophobic mismatch demonstrated for membranolytic peptides, and their use as molecular rulers to measure bilayer thickness in native cells” (Scientific Reports, 2015)
